Assay results from US10870647B2, “Imidazopyridine derivative, method for preparing same, and pharmaceutical composition containing same as active ingredient for preventing or treating cancer” (DAEGU-GYEONGBUK MEDICAL INNOVATION FOUNDATION, priority 2016, dated 2020).

Legend:
Assay type in all cases: cell-based
M-NFS-60 = assay: Cancer cell proliferation inhibition, CCK-8, 72 hours
Procedure: (§1) MTS assay was performed to evaluate the cancer cell proliferation inhibition (cancer cell apoptosis) effect of the compounds of examples of the present invention. Particularly, the assay was performed using the cancer cell lines GIST-T1, GIST-T1/816, GIST-430, GIST-430/654, GIST-R1, GIST-R3, M-NFS-60, RetParental (Ba/F3), Retwt (Ba/F3), RetV804M (Ba/F3), RET (LC2/ad-CDC6), FYN (MCP-1), FYN (FN), MDA-MB-231, Huh7, K562, T315I(Ba/F3), SK-MEL-28 and A375. Cell culture was performed using a medium suitable for each cell line.
M-NFS-60 cell line was cultured in the complete growth medium prepared by adding 10% FBS, 0.05 mM 2-mercaptoethanol and 62 ng of human M-CSF to RPMI. When the confluence reached 80% in T-75 flask, the cells were collected in a 50 ml tube for seeding, followed by centrifugation at 800 rpm for 5 minutes. The cells were suspended in 10 mL of growth medium. The cell number was counted by using a hematocytometer to determine the necessary cell number and the medium volume for seeding. The cells were seeded in a 96-well plate at the density of 20000 cells/well (200 μL/well), followed by stabilization in a 37° C. CO2 incubator, while the compounds of the present invention were prepared. The compounds of the present invention were serially diluted with DMSO at the ratio of 1/3 with setting the maximum concentration at 1968 nM, which were loaded in a new V-bottom 96-well plate, resulting in the preparation of total 11 concentrations including the DMSO control. The cells that had been placed in the incubator were taken out, to which the compounds of the present invention were added (2 μl/well). The plate treated with the compounds was cultured in a 37° C. CO2 incubator for 72 hours. 72 hours later, the plate treated with the compounds was taken out, to which CCK-8 solution was treated (20 μl/well). After well mixing, the plate was further cultured in a 37° C. CO2 incubator for 2 hours. Then, OD450 was measured by using a microplate reader. To obtain accurate results, the wells displaying bubbles were eliminated from the measurement.

Huh7 = assay: Cancer cell proliferation inhibition, MTS assay, 72 hours; settings: Homo sapiens, Huh-7
Procedure: as §1
(§2) Other cell lines were seeded in a 96-well plate containing the corresponding medium appropriate for each cell line at the density of 3,000 cells/well, followed by culture in a 5% CO2 and 37° C. incubator for 24 hours. The compounds of examples of the present invention were added to each well at the concentration of from the highest volume of 50 μM to every step of serial dilution. The solvent control, dimethylsulfoxide (DMSO), was treated at the same concentration of 0.05% (v/v) as the volume used for the treatment of the compounds above. Each cell line was cultured for 72 hours. To investigate the cell viability, the MTS and PMS (phenazine methosulfate) mixture provided in CellTiter 96® AQuous Non-Radioactive Cell Proliferation Assay Kit (Promega) was added to each cell culture medium, followed by additional culture at 37° C. for 2 hours. Then, OD450 was measured. Based on OD of the solvent control cells not treated with any compounds of the present invention, the cell proliferation inhibition rate was calculated according to the treatment concentration of each compound. At this time, the concentration of each compound that was able to inhibit cancer cell proliferation up to 50% was determined as IC50 (uM). IC50 of each compound was determined with three data sets and calculated by using Prism softwater (version 6.01, GraphPad).

MDA-MB-231 = assay: Real time cell proliferation, IncuCyte ZOOM, 72 hours; settings: Homo sapiens, MDA-MB-231, 72 h
A375 = assay: Cancer cell proliferation inhibition, CCK-8, 72 hours; settings: Homo sapiens, A-375, 72 h
Procedure: as §1
(§3) In the meantime, MDA-MB-231 and A375 cells were seeded in a 96well plate at the density of 2×10^3/100 μl/well, which stood for a day for attachment. The culture fluid was eliminated. After removing the culture medium, the medium was replaced with the culture medium containing the compounds of the present invention at 3-times serially diluted 9 concentrations (0.0015-10 μM) and the DMSO control, followed by incubation in a 37° C. CO2 incubator for 72 hours. On the other hand, K-562 and Ba/F3-T315I cells were seeded in a 96-well plate at the density of 1×10^4/90 μl/well. The plate containing K-562 cells was added with the culture medium containing the compounds of the present invention at 3-times serially diluted 9 concentrations (0.015-100 μM) and the DMSO control (10 μl/well). The plate containing Ba/F3-T315I cells was added with the culture medium containing the compounds of the present invention at 5-times serially diluted 9 concentrations (0.000256-100 μM) and the DMSO control (10 μl/well). The final concentration was made 0-10 μM and then the cells were cultured in a 37° C. CO2 incubator for 72 hours.
(§4) A375, K-562 and Ba/F3-T315I cells were added with CCK-8 solution at the concentration of 10 μl/well, followed by orbital shaking for 30 seconds. Then, the cells were cultured in a 37° C. CO2 incubator for 2 hours. OD450 was measured by using a microplate reader. The OD value of the well treated with the culture medium and CCK-8 solution alone was subtracted from the OD value measured above, followed by calculation of IC50 using GraphPad Prism 6 software.

K562 = assay: as above; settings: Homo sapiens, K562, 72 h
Procedure: as §1, §3, §4

T315I (Ba/F3) = target: T1, T315I (Ba/F3) (Homo sapiens, UniProt P00519, T315I, cells depend on it); assay: as above; settings: read-out: T315I (Ba/F3) IC50
T1 construct: fused on or other part: P11274 (Breakpoint cluster region protein)
Procedure: as §1, §3, §4

RET (LC2/ad-CDC6) = assay: Cancer cell proliferation inhibition, MTS assay, 72 hours; settings: 72 h
Procedure: as §1, §2

Structure (SMILES)	IC50 (M-NFS-60)	IC50 (Huh7)	IC50 (MDA-MB-231)	IC50 (A375)	IC50 (K562)	GI50 (T315I (Ba/F3))	IC50 (RET (LC2/ad-CDC6))
Cc1ccc(C(=O)Nc2ccc3cccnc3c2)cc1C#Cc1cnc2c(Nc3cnn(C)c3)cccn12 [Example 36, 4-methyl-3-((8-((1-methyl-1H-pyrazol-4-yl)amino)imidazo[1,2-a]pyridin-3-yl)ethynyl)-N-(quinolin-7-yl)benzamide]	7.76 nM	145 nM	> 10000 nM	> 10000 nM	6 nM	> 10000 nM	
Cc1ccc(C(=O)Nc2ccc(CN3CC[C@@H](N(C)C)C3)c(C(F)(F)F)c2)cc1C#Cc1cnc2c(Nc3cnn(C)c3)cccn12 [Example 50, (R)—N-(4-((3-(dimethylamino)pyrrolidin-1-yl)methyl)-3-(trifluoromethyl)phenyl)-4-methyl-3-((8-((1-methyl-1H-pyrazol-4-yl)amino)imidazo[1,2-a]pyridin-3-yl)ethynyl)benzamide]	40.3 nM	57 nM	325 nM	224 nM	< 1 nM	28.2 nM	> 10 nM
Cc1ccc(C(=O)Nc2ccc(Cl)c(C(F)(F)F)c2)cc1C#Cc1cnc2c(Nc3cnn(C4CCNCC4)c3)cccn12 [Example 63, N-(4-chloro-3-(trifluoromethyl)phenyl)-4-methyl-3-((8-((1-(piperidin-4-yl)-1H-pyrazol-4-yl)amino)imidazo[1,2-a]pyridin-3-yl)ethynyl)benzamide]	71 nM		1410 nM	1330 nM	< 1 nM	374 nM	> 10 nM
Cc1ccc(C(=O)Nc2ccc(CN3CCN(C)CC3)c(C(F)(F)F)c2)cc1C#Cc1cnc2c(Nc3cccc(C(C)(C)O)n3)cccn12 [Example 64, 3-((8-(6-(2-hydroxypropan-2-yl)pyridin-2-yl)aminoimidazo[1,2-a]pyridin-3-yl)ethynyl)-4-methyl-N-(4-((4-methylpiperazin-1-yl)methyl)-3-(trifluoromethyl)phenyl)benzamide]	127 nM		987 nM	741 nM	3 nM	75 nM	> 10 nM
Cc1ccc(C(=O)Nc2ccc(CN3CCN(C)CC3)c(C(F)(F)F)c2)cc1C#Cc1cnc2c(Nc3cc4n(n3)CCNC4)cccn12 [Example 66, 4-methyl-N-(4-((4-methylpiperazin-1-yl)methyl)-3-(trifluoromethyl)phenyl)-3-((8-((4,5,6,7-tetrahydropyrazolo[1,5-a]pyrazin-2-yl)amino)imidazo[1,2-a]pyridin-3-yl)ethynyl)benzamide]	62.7 nM		386 nM		< 1.5 nM	170 nM	
Cc1ccc(C(=O)Nc2cccc(C(F)(F)F)c2)cc1C#Cc1cnc2c(Nc3cc4n(n3)CCNC4)cccn12 [Example 67, 4-methyl-3-((8-((4,5,6,7-tetrahydropyrazolo[1,5-a]pyrazin-2-yl)amino)imidazo[1,2-a]pyridin-3-yl)ethynyl)-N-(3-(trifluoromethyl)phenyl)benzamide]	19.4 nM	919 nM	429 nM		< 1.5 nM	40.1 nM	
COCCn1cc(Nc2cccn3c(C#Cc4cc(C(=O)Nc5cccc(C(F)(F)F)c5)ccc4C)cnc23)cn1 [Example 70]	12.3 nM	848 nM	1160 nM		< 1.5 nM	26.1 nM	
Cc1ccc(C(=O)Nc2cccc(C(F)(F)F)c2)cc1C#Cc1cnc2c(Nc3cnn(CCN(C)C)c3)cccn12 [Example 74]	21.4 nM		1120 nM		< 1.5 nM	93.1 nM	

More lines, in order of falling IC50 (MDA-MB-231), values ahead:

IC50 (M-NFS-60)	IC50 (Huh7)	IC50 (MDA-MB-231)	IC50 (A375)	IC50 (K562)	GI50 (T315I (Ba/F3))	IC50 (RET (LC2/ad-CDC6))	Structure (SMILES)
	100 nM	320 nM	163 nM	8 nM	122 nM	> 10 nM	COCCCn1cc(Nc2cccn3c(C#Cc4cc(C(=O)Nc5ccc(CN6CCN(C)[C@H](C)C6)c(C(F)(F)F)c5)ccc4C)cnc23)cn1 [Example 42, (R)—N-(4-((3,4-dimethylpiperazin-1-yl)methyl)-3-(trifluoromethyl)phenyl)-3-((8-((1-(3-methoxypropyl)-1H-pyrazol-4-yl)amino)imidazo[1,2-a]pyridin-3-yl)ethynyl)-4-methylbenzamide]
38.8 nM	165 nM	240 nM	183 nM	12 nM	42.2 nM	10 nM	COCCn1cc(Nc2cccn3c(C#Cc4cc(C(=O)Nc5ccc(CN6CCN(C)[C@@H](C)C6)c(C(F)(F)F)c5)ccc4C)cnc23)cn1 [Example 44, (S)—N-(4-((3,4-dimethylpiperazin-1-yl)methyl)-3-(trifluoromethyl)phenyl)-3-((8-((1-(2-methoxyethyl)-1H-pyrazol-4-yl)amino)imidazo[1,2-a]pyridin-3-yl)ethynyl)-4-methylbenzamide]
	101 nM	230 nM	97 nM	8 nM	33.5 nM	10 nM	COCCn1cc(Nc2cccn3c(C#Cc4cc(C(=O)Nc5ccc(CN6CCN(C)[C@H](C)C6)c(C(F)(F)F)c5)ccc4C)cnc23)cn1 [Example 40, (R)—N-(4-((3,4-dimethylpiperazin-1-yl)methyl)-3-(trifluoromethyl)phenyl)-3-((8-((1-(2-methoxyethyl)-1H-pyrazol-4-yl)amino)imidazo[1,2-a]pyridin-3-yl)ethynyl)-4-methylbenzamide]
	98 nM	190 nM	341 nM	16 nM	59.7 nM	> 10 nM	COCCCn1cc(Nc2cccn3c(C#Cc4cc(C(=O)Nc5ccc(CN6CCC(N(C)C)C6)c(C(F)(F)F)c5)ccc4C)cnc23)cn1 (centres unmarked) [Example 43, N-(4-((3-(dimethylamino)pyrrolidin-1-yl)methyl)-3-(trifluoromethyl)phenyl)-3-((8-((1-(3-methoxypropyl)-1H-pyrazol-4-yl)amino)imidazo[1,2-a]pyridin-3-yl)ethynyl)-4-methylbenzamide]
43.8 nM		168 nM	152 nM	< 1 nM	25 nM	> 10 nM	Cc1ccc(C(=O)Nc2ccc(CN3CCN(C)[C@@H](C)C3)c(C(F)(F)F)c2)cc1C#Cc1cnc2c(Nc3cnn(C)c3)cccn12 [Example 47, (S)—N-(4-((3,4-dimethylpiperazin-1-yl)methyl)-3-(trifluoromethyl)phenyl)-4-methyl-3-((8-((1-methyl-1H-pyrazol-4-yl)amino)imidazo[1,2-a]pyridin-3-yl)ethynyl)benzamide]
